Measured values as given in patent EP0987025A1, “Pharmaceitical composition or composition package containing a pyrimidine nucleoside analogue and a purine nucleoside analogue” (priority 1998, dated 2000).

How the values were obtained:
Format in all cases: in vivo, C57BL/6 mice
[1] = system: BM5d proviral DNA; assay: PCR analysis of BM5d proviral DNA in spleen, lymph node and bone marrow; settings: for % of inhibition of BM5d proviral DNA, Bonemarrow / % of inhibition of BM5d proviral DNA, Lymphnode / % of inhibition of BM5d proviral DNA, Spleen: after 7 weeks of infection
From the text: The following oligonucleotide primers were used for the amplification of a 141-bp gag gene of defective virus genome (BM5d); 5' primer, 5'-AACCTTCCTCCTCTGCCA-3' (sense) corresponding to nucleotides 1456-1473 and 3' primer, 5'-ACCACCTCTCGGGCTTTC-3' (antisense) corresponding to nucleotides 1579-1596 of the BM5d genome (Chat topadhyay SK, Sengupta D.N., FredricksonT.N., Morse H.C. III, Hartley J.W., "Characteristics and contributions of defective, ecotropic and mink cell focus-inducing viruses in a retrovirus induced immunodeficiency syndrome of mice.", J..Virol. 1991; 65: 4232-41.). A second pair or oligonucleotide primers was used for amplification of 203-bp of the mouse glucose-6-phosphate dehydrogenase (G6PD) gene. This amplification served as an internal control (endogenous standard) for evaluation of the relative BM5d proviral DNA. The nucleotide primers for the amplification were as follows: 5' primer, 5'-[…]-3' (sense) and 3' primer, 5'-[…]-3' (antisense) (Kurdi-Haidar B., Mason P.J., Berrebi A., et al., "Origin and spread of the glucose-6-phosphate dehydrogenase variant (G6PD-Mediterranean) in the Middle East.", Am. J. Hum. Genet. 1990; 47:1013-19.).
Probe D30, which was derived from the 137-bp Smal-Xhol p12 gag fragment of the defective virus genome (DU5H), was kindly provided by P. Jolicoeur (Montreal, Canada) (Aziz D.C., Hanna Z., Jolicoeur P., "Severe immunodeficiency disease induced by a defective murine leukemia virus.", Nature 1989; 338: 505-08).
Total cellular DNA was isolated from the spleens, lymph nodes and bone marrow of uninfected, infected and infected/treated mice by the sodium iodide isopropanol method.
PCR amplifications were performed in a 25 µl final volume using the Perkin Elmer GeneAMP kit (1 mM MgCl2, 2.5 U AmpliTag) with 0.3 µg total cellular DNA and 20 pmol of each primer.
PCR reaction were carried out for 37 cycles at 95°C for 30 sec, 58°C for 30 sec and 72°C for 30 sec with a final extension at 72°C for 10 min.
Products were analyzed by electrophoresis on agarose gel, blotted and hybridized with either the ^32P-labeled D30 or G6PD probe.
The intensity of radiolabeled bands was analyzed and quantified in a GS-250 Molecular Imager™ (Bio-Rad, Hercules, CA, USA). For BM5d proviral DNA detection the relative integration was determined by dividing the intensity of the BM5d bands by the intensity of G6PD bands (Fraternale A., Casabianca A., Rossi L., et al., "Inhibition of murine AIDS by combination of AZT and dideoxycytidine 5'-triphosphate.", J. Acquir. Imm. Def Syndr. and Hum. Retrovir. 1996; 12:164-73). The percentages of inhibition were referred to the infected mice.

[2] = system: mitochondrial DNA; assay: Determination of mitochondrial DNA content; settings: treatment C; vs. untreated mice; 10 weeks after infection; not statistically significant
From the text: To detect the mitochondrial DNA a 1544-bp mitochondrial DNA fragment was used as a probe. The mitochondrial DNA probe (kindly provided by Dr. Gadaleta, University of Bari, Italy) spans the region from nucleotide 2578 to 4122 in the complete human mitochondrial DNA. As a result of the high homology between human and mouse mitochondrial DNA this probe recognizes human and mouse sequences equally well (data not shown) (Bibb M.J., Van Etten R.A., Wright C.T., Walberg M.W., Clayton D.A., "Sequence and gene organization of mouse mitochondrial DNA.", Cell 1981; 26:167-80).
Total cellular DNA (4 µg) was digested with the restriction enzyme BamHI (Boehringer, Milan, Italy), analyzed on 0.8% agarose gel, blotted and hybridized with the 1544-bp mitochondrial probe (Brandi G., Casabianca A., Schiavano G.F., et al., "Efficacy and toxicity of long-term administration of 2',3'-dideoxycytidine in the LP-BM5 murine induced immunodeficiency model.", Antiviral Chem. Chemother. 1995; 6:153-61.). […]
Finally, the long term toxicity of Fludara in MAIDS was evaluated. […] Thus, the mitochondrial DNA content in Fludara treated mice was evaluated and only treatment C causes a slight reduction of mitochondrial DNA content (20% vs. untreated mice) although this was not statistically significant. […] The relative amount of mt DNA was determined as described in experimental procedures. […]

[3] = system: LP-BM5; assay: Histopathological examination of liver and lymph node sections; settings: in drinking water at 15 mg/mouse
From the text: Samples of lymph nodes and liver from three animals in each treatment group were fixed in 4% paraformaldehyde in phosphate-buffered saline, sectioned, and stained with May Grunwald-Giemsa.

[4] = system: circulating B cells; assay: Flow cytometry of circulating lymphocytes; settings: after Fludara suspension
From the text: Whole blood samples were stained with antimouse L3T4/CD4 fluorescein isothiocyanate (FITC) conjugated (Boehringer Mannheim Biochemica) for the detection of CD4^+ lymphocytes, antimouse Ly-2R phycoerythrin (PE) conjugated (Boehringer Mannheim Biochemica) for the detection of CD8a lymphocytes, antimouse Thy-1.2 FITC conjugated (Boehringer Mannheim Biochemica) for the detection of T cells, and antimouse Ly 5 (B220)-PE Monoclonal antibody (Cederlane, Ontario, Canada) for the detection of committed B cell precursors. Samples were analyzed by FACS (Becton Dickinson).

[5] = group a: 3.0 mg i.p. once a day for 5 consecutive days, 4 weeks
[6] = group b: 3.0 mg i.p. twice a day for 5 consecutive days, 4 weeks
[7] = group c: 10 mg in drinking water for 5 consecutive days, 4 weeks
[8] = group d: 15 mg in drinking water for 5 consecutive days, 4 weeks
[9] = treatment c: after 6 weeks of infection 3 mg F-ara-AMP i.p. twice a day, 5 consecutive days, 4 weeks, at 10 weeks after infection
[10] = treatment g: after 6 weeks of infection 3 mg F-ara-AMP i.p. twice a day 4 weeks, then interrupted, at 15 weeks after infection

Nc1nc(F)nc2c1ncn2[C@@H]1O[C@H](COP(=O)(O)O)[C@@H](O)[C@@H]1O [F-ara-AMP, Fludarabine phosphate]
% of inhibition of BM5d proviral DNA, Bonemarrow [1, 5]: 0% | % of inhibition of BM5d proviral DNA, Lymphnode [1, 5]: 19.76±11.10 % | % of inhibition of BM5d proviral DNA, Spleen [1, 5]: 25.74±17.54% | % of inhibition of BM5d proviral DNA, Bonemarrow [1, 6]: 22.94±7.40 % | % of inhibition of BM5d proviral DNA, Lymphnode [1, 6]: 54.63±13.12 % | % of inhibition of BM5d proviral DNA, Spleen [1, 6]: 39.85±16.70 % | % of inhibition of BM5d proviral DNA, Bonemarrow [1, 7]: 28.05±8.84 % | % of inhibition of BM5d proviral DNA, Lymphnode [1, 7]: 30.33±19.67 % | % of inhibition of BM5d proviral DNA, Spleen [1, 7]: 15.16±11.46% | % of inhibition of BM5d proviral DNA, Bonemarrow [1, 8]: 21.69±9.02 % | % of inhibition of BM5d proviral DNA, Lymphnode [1, 8]: 12.16±5.48% | % of inhibition of BM5d proviral DNA, Spleen [1, 8]: 27.40±8.47 % | bone marrow, BM5d proviral DNA copy number (E) [1, 9]: 19,750±1,485 Proviral DNA molecules per 0.3 µg of total cellular DNA | bone marrow, inhibition of BM5d (% vs. Infected) (F) [1, 9]: 30.32±5.24 % | lymph node, BM5d proviral DNA copy number (C) [1, 9]: 49,500±7758 Proviral DNA molecules per 0.3 µg of total cellular DNA | lymph node, inhibition of BM5d (% vs. Infected) (D) [1, 9]: 77.46±3.53 % | spleen, BM5d proviral DNA copy number (A) [1, 9]: 37,900±15,717 Proviral DNA molecules per 0.3 µg of total cellular DNA | spleen, inhibition of BM5d (% vs. Infected) (B) [1, 9]: 74.27 ± 10.67 % | bone marrow, BM5d proviral DNA copy number (E) [1, 10]: 33,900±3,736 Proviral DNA molecules per 0.3 µg of total cellular DNA | lymph node, BM5d proviral DNA copy number (C) [1, 10]: 180,000±8,544 Proviral DNA molecules per 0.3 µg of total cellular DNA | lymph node, inhibition of BM5d (% vs. Infected) (D) [1, 10]: 34.00±3.13 % | spleen, BM5d proviral DNA copy number (A) [1, 10]: 135,000±47,444 Proviral DNA molecules per 0.3 µg of total cellular DNA | spleen, inhibition of BM5d (% vs. Infected) (B) [1, 10]: 31.47±24.08% | reduction of mitochondrial DNA content [2]: 20% | toxicity in the liver (necrotic cells) [3]: some toxicity | number of circulating B cells after suspension of administration [4]: returns to normal values
